Reference: PubChem BioAssay (NCI)
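Compound exposure: 48 hours, 5 concentrations, 96-well plates. The concentration for 50% growth inhibition is given as GI50. Definition used: TGI = concentration required for complete inhibition of growth.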

What was measured:
Experiment in all cases: inhibition of tumour cell growth, NCI panel, 48 h
[1] = system: RXF 393 renal
[2] = system: SNB-75 CNS
[3] = system: CAKI-1 renal
[4] = system: HS 578T breast
[5] = system: HT29 colon
[6] = system: NCI-H226 lung
[7] = system: A498 renal
[8] = system: K-562 leukemia
[9] = system: 786-0 renal
[10] = system: TK-10 renal
[11] = system: NCI/ADR-RES ovarian
[12] = system: CCRF-CEM leukemia
[13] = system: HOP-62 NSCLC
[14] = system: UACC-257 melanoma
[15] = system: COLO 205 colon
[16] = system: LOX IMVI melanoma
[17] = system: MDA-MB-435
[18] = system: OVCAR-5 ovarian
[19] = system: SR leukemia
[20] = system: T-47D breast
[21] = system: SNB-19 CNS
[22] = system: SK-MEL-5 melanoma
[23] = system: SK-MEL-28 melanoma
[24] = system: IGROV1 ovarian
[25] = system: M14 melanoma
[26] = system: HL-60(TB) leukemia
[27] = system: OVCAR-4 ovarian

Molecule COc1ccc(N2CCN(C3=C(Cl)C(=O)c4ncccc4C3=O)CC2)cc1 has a TGI [1] of 8.37 µM, a GI50 [2] of 14.3 µM and a TGI [2] of 28.8 µM. For the same molecule, the GI50 [3] was 4.72 µM, the TGI [3] was 17.1 µM and the GI50 [4] was 14.1 µM. It also gave a TGI [4] of 39 µM, a GI50 [5] of 4.71 µM and a TGI [5] of 18.2 µM. The GI50 [6] was 16.2 µM, the TGI [6] was 35.9 µM and the GI50 [7] was 15 µM. The TGI [7] was 29.1 µM, the GI50 [8] was 3.03 µM and the TGI [8] was 12 µM. The GI50 [9] was 15.9 µM, the TGI [9] was 29.5 µM and the GI50 [10] was 4.11 µM. It also gave a TGI [10] of 11.6 µM, a GI50 [11] of 6.74 µM and a TGI [11] of 28.6 µM. For the same molecule, the GI50 [12] was 2.8 µM, the TGI [12] was over 100 µM and the GI50 [13] was 19.1 µM. The TGI [13] was 38 µM, the GI50 [14] was 2.86 µM and the TGI [14] was 8.41 µM. It also gave a GI50 [15] of 2.01 µM, a TGI [15] of 4.04 µM and a GI50 [16] of 1.75 µM. The TGI [16] was 3.56 µM, the GI50 [17] was 1.94 µM and the TGI [17] was 3.68 µM. The GI50 [18] was 16.2 µM, the TGI [18] was 30.3 µM and the GI50 [19] was 2.27 µM. For the same molecule, the TGI [19] was 6.59 µM, the GI50 [20] was 1.78 µM and the TGI [20] was 4.26 µM. It also gave a GI50 [21] of 16.9 µM, a TGI [21] of 32.9 µM and a GI50 [22] of 12.8 µM. For the same molecule, the TGI [22] was 25.5 µM, the GI50 [23] was 3.8 µM and the TGI [23] was 13.2 µM. It also gave a GI50 [24] of 3.25 µM, a TGI [24] of 11.6 µM and a GI50 [25] of 3.04 µM. It also gave a TGI [25] of 10.5 µM, a GI50 [26] of 1.48 µM and a TGI [26] of 4.46 µM. The GI50 [27] was 2.18 µM and the TGI [27] was 5.36 µM.
